ChEMBL document CHEMBL1157878, “Synthesis and antiproliferative properties of ibuprofen-oligo(3-hydroxybutyrate) conjugates” (Eur J Med Chem, 2010)

Columns and labels:
HT-29 = assay: Cytotoxicity against human HT-29 cells after 72 hrs by MTT assay; assay type: functional, cell-based; details: HT-29, 72 h
HCT-116 = assay: Cytotoxicity against human HCT116 cells after 72 hrs by MTT assay; assay type: functional, cell-based; details: HCT-116, 72 h

CC(C)Cc1ccc(C(C)C(=O)OC(C)CC(=O)OC(C)CC(=O)OC(C)CC(=O)OC(C)CC(=O)OC(C)CC(=O)OC(C)CC(=O)O)cc1 (stereo unspecified)
IC50 (HT-29): 77 µM | IC50 (HCT-116): 53 µM

CC(C)Cc1ccc(C(C)C(=O)O)cc1 (stereo unspecified) [IBUPROFEN]
IC50 (HT-29): 552 µM | IC50 (HCT-116): 448 µM

CC(C)Cc1ccc(C(C)C(=O)OC(C)CC(=O)OC(C)CC(=O)OC(C)CC(=O)OC(C)CC(=O)O)cc1 (stereo unspecified)
IC50 (HT-29): 37 µM | IC50 (HCT-116): 31 µM
